Experimental data as given in patent publication US20060069132A1, “Azolecarboxamide herbicides” (priority 2004, published 2006).

Columns and labels:
[1] = tested on: barnyardgrass; test: Test A pre-/postemergence herbicide test; assay type: in vivo, Echinochloa crus-galli
Outline: (§1)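 Sandy loam soil given preemergence directed spray; plants at 2 to 10 cm, one- to two-leaf stage, sprayed to runoff postemergence, compounds in non-phytotoxic solvent with surfactant. Injury rated visually versus untreated controls after about ten greenhouse days, 0 (no effect) to 100 (complete control); dash means not tested.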

[2] = tested on: large crabgrass; test: Test A pre-/postemergence herbicide test; assay type: in vivo, Digitaria sanguinalis
Outline: as §1

[3] = tested on: giant foxtail; test: Test A pre-/postemergence herbicide test; assay type: in vivo, Setaria faberi
Outline: as §1

[4] = tested on: morningglory; test: Test A pre-/postemergence herbicide test; assay type: in vivo, Ipomoea spp.
Outline: as §1

[5] = tested on: redroot pigweed; test: Test A pre-/postemergence herbicide test; assay type: in vivo, Amaranthus retroflexus
Outline: as §1

[6] = tested on: velvetleaf; test: Test A pre-/postemergence herbicide test; assay type: in vivo, Abutilon theophrasti
Outline: as §1

[7] = tested on: barnyardgrass; test: Test B pre-/postemergence herbicide test; assay type: in vivo, Echinochloa crus-galli
Outline: (§2)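 Test chemicals in a non-phytotoxic solvent mixture with surfactant were applied preemergence to seeded species and postemergence to plants 2-18 cm tall (1- to 4-leaf stage); rice and barnyardgrass were also tested in a flooded paddy at the 2-leaf stage. Visual rating versus controls after 13-15 days in greenhouse, scale 0 (no effect) to 100 (complete control).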

[8] = tested on: Surinam grass; test: Test B pre-/postemergence herbicide test; assay type: in vivo, Urochloa decumbens
Outline: (§3)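 Flooded paddy rice and barnyardgrass were treated at the 2-leaf stage; upland plantings received compound either on sown seed or on 1- to 4-leaf seedlings. All were kept 13–15 days in a greenhouse and scored visually, 0–100, relative to untreated plants.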

[9] = tested on: cocklebur; test: Test B pre-/postemergence herbicide test; assay type: in vivo, Xanthium strumarium
Outline: as §2

[10] = tested on: corn; test: Test B pre-/postemergence herbicide test; assay type: in vivo, Zea mays
Outline: as §3

[11] = tested on: large crabgrass; test: Test B pre-/postemergence herbicide test; assay type: in vivo, Digitaria sanguinalis
Outline: as §3

[12] = tested on: giant foxtail; test: Test B pre-/postemergence herbicide test; assay type: in vivo, Setaria faberi
Outline: as §3

[13] = tested on: lambsquarters; test: Test B pre-/postemergence herbicide test; assay type: in vivo, Chenopodium album
Outline: as §3

[14] = tested on: morningglory; test: Test B pre-/postemergence herbicide test; assay type: in vivo, Ipomoea coccinea
Outline: as §2

[15] = tested on: pigweed; test: Test B pre-/postemergence herbicide test; assay type: in vivo, Amaranthus retroflexus
Outline: as §3

[16] = tested on: rice; test: Test B pre-/postemergence herbicide test; assay type: in vivo, Oryza sativa; details: preemergence
Outline: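 Evaluation is visual, comparing treated with control plants on a scale where 0 means no effect and 100 means full control. Treatments were preemergence, or postemergence on seedlings 2–18 cm tall, and held 13–15 days in the greenhouse.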

[17] = tested on: velvetleaf; test: Test B pre-/postemergence herbicide test; assay type: in vivo, Abutilon theophrasti
Outline: as §3

[18] = tested on: blackgrass; test: Test B postemergence herbicide test; assay type: in vivo, Alopecurus myosuroides; details: scale 0 (no effect) to 100 (complete control)
Outline: (§4)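 Paddy species grown to the 2-leaf stage under flooding; blackgrass sprayed postemergence at 2–18 cm (1- to 4-leaf stage). Plants kept in a greenhouse for 13 to 15 days, then visually rated against controls on 0 (no effect) to 100 (complete control).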

[19] = tested on: wheat; test: Test B postemergence herbicide test; assay type: in vivo, Triticum aestivum; set-up: key to Wheat plant response rating: 0 = no effect, 100 = complete control; details: scale 0 (no effect) to 100 (complete control)
Outline: (§5)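 Read-out: visual comparison with controls, scored 0 to 100, where 100 means complete control and 0 no effect. Formulated chemicals were applied postemergence to plants 2–18 cm tall (1- to 4-leaf), or to flooded-paddy plants at the 2-leaf stage, then held 13 to 15 days under glass.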

[20] = tested on: wild oat; test: Test B postemergence herbicide test; assay type: in vivo, Avena fatua; details: scale 0 (no effect) to 100 (complete control)
Outline: as §5

[21] = tested on: rice; test: Test B flooded paddy test; assay type: in vivo, Oryza sativa; details: 1000 g ai/ha, visual rating, scale 0 to 100 (0 no effect, 100 complete control), 13 to 15 days
Outline: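 After treating 2-leaf paddy plants or 2–18 cm postemergence plants (1 to 4 leaves) with formulated chemical, researchers kept them in a greenhouse for 13–15 days. Effects were judged visually versus controls: 0 indicates none, 100 total control.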

[22] = tested on: small flower umbrella sedge; test: Test B flooded paddy test; assay type: in vivo, Cyperus difformis; details: 1000 g ai/ha, visual rating, scale 0 to 100 (0 no effect, 100 complete control), 13 to 15 days
Outline: as §4

[23] = tested on: ducksalad; test: Test B flooded paddy test; assay type: in vivo, Heteranthera limosa; details: 1000 g ai/ha, visual rating, scale 0 to 100 (0 no effect, 100 complete control), 13 to 15 days
Outline: as §4

[24] = tested on: barnyardgrass; test: Test B flooded paddy test; assay type: in vivo, Echinochloa crus-galli; details: 1000 g ai/ha, visual rating, scale 0 to 100 (0 no effect, 100 complete control), 13 to 15 days
Outline: as §4

[25] = Postemergence, 500 g ai/ha, 0 to 100 scale, 0 no effect, 100 complete control
[26] = Postemergence, 2000 g ai/ha, 0 to 100 scale, 0 no effect, 100 complete control
[27] = Preemergence, 500 g ai/ha, visual rating, 0 to 100 scale (0 no effect, 100 complete control)
[28] = Preemergence, 2000 g ai/ha, visual rating, 0 to 100 scale (0 no effect, 100 complete control)
[29] = 500 g ai/ha, visual rating 0-100, 0 no effect, 100 complete control, preemergence
[30] = Postemergence, 500 g ai/ha, visual rating after 13 to 15 days, scale 0 (no effect) to 100 (complete control)
[31] = postemergence, 125 g ai/ha, visual rating, scale 0 (no effect) to 100 (complete control)
[32] = preemergence, 125 g ai/ha, 0 to 100 scale, 0 is no effect, 100 is complete control
[33] = Postemergence, 500 g ai/ha, visual rating after 13 to 15 days
[34] = postemergence, 125 g ai/ha, visual rating

CCOC(=O)c1cccc(NC(=O)c2cc(C(C)(C)C)nn2CC)c1OC [Compound 97]
50: Lambsquarters plant response rating [13, 31] | Ducksalad plant response rating [23]
0: Barnyardgrass plant response rating [1, 27] | Barnyardgrass plant response rating [1, 28] | Crabgrass, Large plant response rating [2, 27] | Crabgrass, Large plant response rating [2, 28] | Foxtail, Giant plant response rating [3, 27] | Foxtail, Giant plant response rating [3, 28] | Morningglory plant response rating [4, 25] | Plant response rating, Morningglory [4, 26] | Morningglory plant response rating [4, 27] | Morningglory plant response rating [4, 28] | Pigweed plant response rating [5, 25] | Pigweed plant response rating [5, 27] | Pigweed plant response rating [5, 28] | Velvetleaf plant response rating [6, 27] | Velvetleaf plant response rating [6, 28] | Plant response rating, Barnyardgrass [7, 29] | Plant response rating, Barnyardgrass [7, 30] | Barnyardgrass plant response rating [7, 31] | Plant response rating, Barnyardgrass [7, 32] | Plant response rating, Surinam Grass [8, 29] | Plant response rating, Surinam Grass [8, 30] | Surinam Grass plant response rating [8, 31] | Plant response rating, Surinam Grass [8, 32] | Plant response rating, Cocklebur [9, 29] | Cocklebur plant response rating [9, 31] | Plant response rating, Cocklebur [9, 32] | Plant response rating, Corn [10, 29] | Plant response rating, Corn [10, 30] | Corn plant response rating [10, 31] | Plant response rating, Corn [10, 32] | Plant response rating, Crabgrass, Large [11, 29] | Plant response rating, Crabgrass, Large [11, 30] | Crabgrass, Large plant response rating [11, 31] | Plant response rating, Crabgrass, Large [11, 32] | Plant response rating, Foxtail, Giant [12, 29] | Plant response rating, Foxtail, Giant [12, 30] | Foxtail, Giant plant response rating [12, 31] | Plant response rating, Foxtail, Giant [12, 32] | Plant response rating, Lambsquarters [13, 29] | Plant response rating, Lambsquarters [13, 32] | Plant response rating, Morningglory [14, 29] | Plant response rating, Morningglory [14, 30] | Morningglory plant response rating [14, 31] | Plant response rating, Morningglory [14, 32] | Plant response rating, Pigweed [15, 29] | Plant response rating, Pigweed [15, 30] | Pigweed plant response rating [15, 31] | Plant response rating, Pigweed [15, 32] | Plant response rating, Rice ([16]; 500 g ai/ha, visual rating 0-100, 0 no effect, 100 complete control) | Plant response rating, Rice ([16]; 125 g ai/ha, 0 to 100 scale, 0 is no effect, 100 is complete control) | Plant response rating, Velvetleaf [17, 29] | Velvetleaf plant response rating [17, 31] | Plant response rating, Velvetleaf [17, 32] | Plant response rating, Blackgrass [18, 33] | Blackgrass plant response rating [18, 34] | Plant response rating, Wheat [19, 33] | Wheat plant response rating [19, 34] | Plant response rating, Oat, Wild [20, 33] | Oat, Wild plant response rating [20, 34] | Rice plant response rating [21] | Barnyardgrass plant response rating [24]
5: Barnyardgrass plant response rating [1, 25] | Foxtail, Giant plant response rating [3, 25] | Velvetleaf plant response rating [6, 25]
10: Plant response rating, Barnyardgrass [1, 26] | Crabgrass, Large plant response rating [2, 25] | Plant response rating, Crabgrass, Large [2, 26] | Plant response rating, Foxtail, Giant [3, 26] | Plant response rating, Velvetleaf [6, 26]
70: Plant response rating, Cocklebur [9, 30] | Plant response rating, Lambsquarters [13, 30] | Sedge, Umbrella plant response rating [22]
25: Plant response rating, Pigweed [5, 26]
60: Plant response rating, Velvetleaf [17, 30]
